From PubChem BioAssay (NCI)
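Protocol summary: plate cells (96-well), add compound at 5 concentrations, incubate 48 h, interpolate endpoints linearly. TGI denotes the concentration required for complete inhibition of growth.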

Tests used:
Assay in all cases: NCI tumour cell line growth inhibition, 48 h
NCI/ADR-RES ovarian = test system: NCI/ADR-RES ovarian
IGROV1 ovarian = test system: IGROV1 ovarian
SNB-75 CNS = test system: SNB-75 CNS
COLO 205 colon = test system: COLO 205 colon
BT-549 breast = test system: BT-549 breast
HOP-62 NSCLC = test system: HOP-62 NSCLC
HCT-116 colon = test system: HCT-116 colon
T-47D breast = test system: T-47D breast
LOX IMVI melanoma = test system: LOX IMVI melanoma
MCF7 breast = test system: MCF7 breast
RXF 393 renal = test system: RXF 393 renal
OVCAR-8 ovarian = test system: OVCAR-8 ovarian
OVCAR-4 ovarian = test system: OVCAR-4 ovarian
KM12 colon = test system: KM12 colon
SW-620 colon = test system: SW-620 colon
MDA-N = test system: MDA-N
EKVX NSCLC = test system: EKVX NSCLC
A498 renal = test system: A498 renal
HCT-15 colon = test system: HCT-15 colon
ACHN renal = test system: ACHN renal
TK-10 renal = test system: TK-10 renal
K-562 leukemia = test system: K-562 leukemia
HT29 colon = test system: HT29 colon
UO-31 renal = test system: UO-31 renal
SF-295 CNS = test system: SF-295 CNS
UACC-257 melanoma = test system: UACC-257 melanoma
NCI-H460 lung = test system: NCI-H460 lung
SR leukemia = test system: SR leukemia
SF-539 CNS = test system: SF-539 CNS
M14 melanoma = test system: M14 melanoma
U251 CNS = test system: U251 CNS
SF-268 CNS = test system: SF-268 CNS
HL-60(TB) leukemia = test system: HL-60(TB) leukemia
SN12C renal = test system: SN12C renal
MDA-MB-231 breast = test system: MDA-MB-231 breast
SK-MEL-2 melanoma = test system: SK-MEL-2 melanoma
UACC-62 melanoma = test system: UACC-62 melanoma
MOLT-4 leukemia = test system: MOLT-4 leukemia
SK-MEL-28 melanoma = test system: SK-MEL-28 melanoma
SNB-19 CNS = test system: SNB-19 CNS
HOP-92 NSCLC = test system: HOP-92 NSCLC
786-0 renal = test system: 786-0 renal
MDA-MB-435 = test system: MDA-MB-435
SK-MEL-5 melanoma = test system: SK-MEL-5 melanoma
A549 NSCLC = test system: A549 NSCLC
CAKI-1 renal = test system: CAKI-1 renal
DU-145 prostate = test system: DU-145 prostate
HS 578T breast = test system: HS 578T breast
SK-OV-3 ovarian = test system: SK-OV-3 ovarian
NCI-H226 lung = test system: NCI-H226 lung
RPMI-8226 leukemia = test system: RPMI-8226 leukemia
PC-3 prostate = test system: PC-3 prostate
MALME-3M melanoma = test system: MALME-3M melanoma
NCI-H522 lung = test system: NCI-H522 lung
OVCAR-5 ovarian = test system: OVCAR-5 ovarian
OVCAR-3 ovarian = test system: OVCAR-3 ovarian
HCC-2998 colon = test system: HCC-2998 colon
CCRF-CEM leukemia = test system: CCRF-CEM leukemia

SMILES: O=C(O)CN1C(=O)CN=C(c2ccccn2)c2cc(Cl)ccc21
- TGI (NCI/ADR-RES ovarian): > 100 µM
- TGI (IGROV1 ovarian): > 100 µM
- TGI (SNB-75 CNS): > 100 µM
- TGI (COLO 205 colon): > 100 µM
- TGI (BT-549 breast): > 100 µM
- TGI (HOP-62 NSCLC): > 100 µM
- TGI (HCT-116 colon): > 100 µM
- TGI (T-47D breast): > 100 µM
- TGI (LOX IMVI melanoma): > 100 µM
- TGI (MCF7 breast): > 100 µM
- TGI (RXF 393 renal): > 100 µM
- TGI (OVCAR-8 ovarian): > 100 µM
- TGI (OVCAR-4 ovarian): > 100 µM
- TGI (KM12 colon): > 100 µM
- TGI (SW-620 colon): > 100 µM
- TGI (MDA-N): > 100 µM
- TGI (EKVX NSCLC): > 100 µM
- TGI (A498 renal): > 100 µM
- TGI (HCT-15 colon): > 100 µM
- TGI (ACHN renal): > 100 µM
- TGI (TK-10 renal): > 100 µM
- TGI (K-562 leukemia): > 100 µM
- TGI (HT29 colon): > 100 µM
- TGI (UO-31 renal): > 100 µM
- TGI (SF-295 CNS): > 100 µM
- TGI (UACC-257 melanoma): > 100 µM
- TGI (NCI-H460 lung): > 100 µM
- TGI (SR leukemia): > 100 µM
- TGI (SF-539 CNS): > 100 µM
- TGI (M14 melanoma): > 100 µM
- TGI (U251 CNS): > 100 µM
- TGI (SF-268 CNS): > 100 µM
- TGI (HL-60(TB) leukemia): 22.9 µM
- TGI (SN12C renal): > 100 µM
- TGI (MDA-MB-231 breast): > 100 µM
- TGI (SK-MEL-2 melanoma): > 100 µM
- TGI (UACC-62 melanoma): > 100 µM
- TGI (MOLT-4 leukemia): 21.7 µM
- TGI (SK-MEL-28 melanoma): > 100 µM
- TGI (SNB-19 CNS): > 100 µM
- TGI (HOP-92 NSCLC): > 100 µM
- TGI (786-0 renal): > 100 µM
- TGI (MDA-MB-435): > 100 µM
- TGI (SK-MEL-5 melanoma): > 100 µM
- TGI (A549 NSCLC): > 100 µM
- TGI (CAKI-1 renal): > 100 µM
- TGI (DU-145 prostate): > 100 µM
- TGI (HS 578T breast): > 100 µM
- TGI (SK-OV-3 ovarian): > 100 µM
- TGI (NCI-H226 lung): > 100 µM
- TGI (RPMI-8226 leukemia): > 100 µM
- TGI (PC-3 prostate): > 100 µM
- TGI (MALME-3M melanoma): > 100 µM
- TGI (NCI-H522 lung): > 100 µM
- TGI (OVCAR-5 ovarian): > 100 µM
- TGI (OVCAR-3 ovarian): > 100 µM

SMILES: N#CC1(C#N)[C@@H]2CCC=C(Sc3ccccc3)[C@@H]21
- TGI (NCI/ADR-RES ovarian): 40.4 µM
- TGI (HCC-2998 colon): 32 µM
- TGI (IGROV1 ovarian): 39.8 µM
- TGI (SNB-75 CNS): 47.2 µM
- TGI (COLO 205 colon): 32 µM
- TGI (BT-549 breast): 44.4 µM
- TGI (CCRF-CEM leukemia): 63.1 µM
- TGI (HCT-116 colon): 29.6 µM
- TGI (T-47D breast): 52.4 µM
- TGI (LOX IMVI melanoma): 36.8 µM
- TGI (MCF7 breast): 23.4 µM
- TGI (RXF 393 renal): 26.3 µM
- TGI (OVCAR-8 ovarian): 31.2 µM
- TGI (OVCAR-4 ovarian): 29 µM
- TGI (KM12 colon): 28.5 µM
- TGI (SW-620 colon): 26 µM
- TGI (MDA-N): 34.1 µM
- TGI (EKVX NSCLC): 35.4 µM
- TGI (A498 renal): > 100 µM
- TGI (HCT-15 colon): 51.1 µM
- TGI (ACHN renal): 33.1 µM
- TGI (TK-10 renal): 28.9 µM
- TGI (K-562 leukemia): > 100 µM
- TGI (HT29 colon): 34.8 µM
- TGI (SF-295 CNS): 32.8 µM
- TGI (UACC-257 melanoma): 42.4 µM
- TGI (NCI-H460 lung): 53.6 µM
- TGI (SR leukemia): > 100 µM
- TGI (SF-539 CNS): 34.7 µM
- TGI (M14 melanoma): 26.5 µM
- TGI (U251 CNS): 30.1 µM
- TGI (SF-268 CNS): 39 µM
- TGI (HL-60(TB) leukemia): 49.9 µM
- TGI (SN12C renal): 32.3 µM
- TGI (MDA-MB-231 breast): 43.7 µM
- TGI (SK-MEL-2 melanoma): 28.3 µM
- TGI (UACC-62 melanoma): 37.6 µM
- TGI (MOLT-4 leukemia): 85.9 µM
- TGI (SK-MEL-28 melanoma): 28.9 µM
- TGI (SNB-19 CNS): 97.9 µM
- TGI (HOP-92 NSCLC): 30.7 µM
- TGI (786-0 renal): 35.5 µM
- TGI (MDA-MB-435): 26.8 µM
- TGI (SK-MEL-5 melanoma): 29.4 µM
- TGI (A549 NSCLC): 52.8 µM
- TGI (CAKI-1 renal): 27.2 µM
- TGI (DU-145 prostate): 30.4 µM
- TGI (HS 578T breast): > 100 µM
- TGI (SK-OV-3 ovarian): 39.6 µM
- TGI (NCI-H226 lung): 36.3 µM
- TGI (RPMI-8226 leukemia): > 100 µM
- TGI (PC-3 prostate): 27.5 µM
- TGI (MALME-3M melanoma): 32 µM
- TGI (NCI-H522 lung): 24.5 µM
- TGI (OVCAR-5 ovarian): 32 µM
- TGI (OVCAR-3 ovarian): 31.1 µM
